Laboratory results taken from ChEMBL document CHEMBL1147204, “Synthesis and antimicrobial evaluation of some new thiazole, thiazolidinone and thiazoline derivatives starting from 1-chloro-3,4-dihydronaphthalene-2-carboxaldehyde” (2007).

Experiments:
Type in all cases: functional
Bacillus subtilis [1] = experiment: Antimicrobial activity against Bacillus subtilis by agar diffusion technique
Escherichia coli [2] = experiment: Antimicrobial activity against Escherichia coli by agar diffusion technique
Aspergillus niger [3] = experiment: Antifungal activity against Aspergillus niger by agar diffusion technique
Aspergillus oryzae [4] = experiment: Antifungal activity against Aspergillus oryzae by agar diffusion technique
Priestia megaterium [5] = experiment: Antimicrobial activity against Bacillus megaterium by agar diffusion technique
Aspergillus niger [6] = experiment: Antifungal activity against Aspergillus niger at 25 ug/mL by agar diffusion technique; conditions: read-out: IZ
Aspergillus oryzae [7] = experiment: Antifungal activity against Aspergillus oryzae at 25 ug/mL by agar diffusion technique; conditions: read-out: IZ
Escherichia coli [8] = experiment: Antimicrobial activity against Escherichia coli at 25 ug/mL by agar diffusion technique; conditions: read-out: IZ
Priestia megaterium [9] = experiment: Antimicrobial activity against Bacillus megaterium at 25 ug/mL by agar diffusion technique; conditions: read-out: IZ
Bacillus subtilis [10] = experiment: Antimicrobial activity against Bacillus subtilis at 25 ug/mL by agar diffusion technique; conditions: read-out: IZ

| Structure (SMILES) | inhibition zone (IZ) (Bacillus subtilis [1]) [mm] | inhibition zone (IZ) (Escherichia coli [2]) [mm] | inhibition zone (IZ) (Aspergillus niger [3]) [mm] | inhibition zone (IZ) (Aspergillus oryzae [4]) [mm] | inhibition zone (IZ) (Priestia megaterium [5]) [mm] | zone of inhibition at 25 µg/mL (Aspergillus niger [6]) [mm] | zone of inhibition at 25 µg/mL (Aspergillus oryzae [7]) [mm] | zone of inhibition at 25 µg/mL (Escherichia coli [8]) [mm] | zone of inhibition at 25 µg/mL (Priestia megaterium [9]) [mm] | zone of inhibition at 25 µg/mL (Bacillus subtilis [10]) [mm] |
| --- | --- | --- | --- | --- | --- | --- | --- | --- | --- | --- |
| ClC1=C(/C=N/Nc2nc(-c3ccccc3)c(/N=N/c3ccccc3)s2)CCc2ccccc21 | 85 | 49 | 79 | 82 | 79 | – | – | – | – | – |
| Nc1sc(=S)n(-c2ccccc2)c1C(=O)N/N=C/C1=C(Cl)c2ccccc2CC1 | 89 | 60 | 64 | 75 | 82 | – | – | – | – | – |
| OC(Cn1cncn1)(Cn1cncn1)c1ccc(F)cc1F [FLUCONAZOLE] | – | – | – | – | – | 22 | 16 | – | – | – |
| CC1(C)S[C@@H]2[C@H](NC(=O)[C@H](N)c3ccccc3)C(=O)N2[C@H]1C(=O)O [AMPICILLIN] | – | – | – | – | – | 33 | – | 26 | 29 | 40 |
| CCOC(=O)C1SC(N/N=C/C2=C(Cl)c3ccccc3CC2)=NC1=O (configuration not stated) | 42 | – | 69 | 73 | 35 | – | – | – | – | – |
| ClC1=C(/C=N/Nc2nc(-c3ccccc3)cs2)CCc2ccccc21 | 65 | 56 | 77 | 79 | 68 | – | – | – | – | – |
| O=C1CS/C(=N\N=C\C2=C(Cl)c3ccccc3CC2)N1c1ccccc1 | 66 | – | 63 | 71 | 55 | – | – | – | – | – |
| O=c1c2c(ncn1/N=C/C1=C(Cl)c3ccccc3CC1)sc(=S)n2-c1ccccc1 | 95 | 85 | 78 | 86 | 92 | – | – | – | – | – |
| O=C1CSC(N/N=C/C2=C(Cl)c3ccccc3CC2)=N1 | 35 | 30 | 66 | 78 | 40 | – | – | – | – | – |
| COc1ccc(/N=N/c2sc(N/N=C/C3=C(Cl)c4ccccc4CC3)nc2-c2ccccc2)cc1 | 90 | 55 | 75 | 86 | 84 | – | – | – | – | – |
| O=C(N[C@H](CO)[C@H](O)c1ccc([N+](=O)[O-])cc1)C(Cl)Cl [CHLORAMPHENICOL] | – | – | – | – | – | 35 | – | 48 | 55 | 30 |
| Cc1nc(N/N=C/C2=C(Cl)c3ccccc3CC2)sc1/N=N/c1ccccc1 | 81 | 60 | 84 | 89 | 86 | – | – | – | – | – |
| O=C1/C(=C\c2ccc(Cl)cc2)S/C(=N\N=C\C2=C(Cl)c3ccccc3CC2)N1c1ccccc1 | 42 | – | 58 | 69 | 43 | – | – | – | – | – |
| COc1ccc(/N=N/c2sc(N/N=C/C3=C(Cl)c4ccccc4CC3)nc2C)cc1 | 87 | 50 | 80 | 86 | 85 | – | – | – | – | – |
| Cc1csc(N/N=C/C2=C(Cl)c3ccccc3CC2)n1 | 55 | 40 | 72 | 75 | 60 | – | – | – | – | – |
| O=C1N=C(N/N=C/C2=C(Cl)c3ccccc3CC2)S/C1=C/c1ccc(Cl)cc1 | 34 | 25 | 75 | 74 | 34 | – | – | – | – | – |
